According to EP2698385A1, “Detection of synthetic cannabinoids” (priority 2012, dated 2014):
Structures can show the parent of a compound that is named as a salt. Where two headings read alike, the source gives them in different places.

Key:
Format in all cases: binding, sheep
[1] = tested on: Antibody to Immunogen I; conditions: Cross-reactants at 100 ng/ml; Antibody to Immunogen I
Procedure: (§1) An aqueous solution of each immunogen was formulated with Freund's Complete Adjuvant (FCA) to form an emulsion consisting of 2mg/ml* immunogen in 50% (v/v) FCA. Three sheep were immunised with this emulsion (1° immunisation), 0.25ml being intramuscularly injected at each of four sites in the flank of each animal. Subsequent immunizations (boosts) contained 1mg/ml* immunogen. All boosts were emulsified in 50% (v/v) Freund's Incomplete Adjuvant (FIA) and were administered in the same manner as the 1° immunisation, at monthly intervals. Blood sampling took place 7 to 14 days after each boost. *The general procedure for immunogen administration is outlined above, however, it was necessary to deviate from this protocol in some cases, due to reduced immunogen concentrations (Immunogens II, IV, VII and VIII) and/or amount available (Immunogen VIII). Any deviations from the protocol described are outlined in Table 1A below and highlighted in bold. Table 1A: Amount and volume of immunogens administered for primary and subsequent boosts
(§2) The wells of an enhanced binding 96 well polystyrene microtiter plate were coated with IgG fraction of antiserum raised to Immunogen I or II, diluted in 10mM Tris, pH8.5 (125µl/well). The appropriate antibody coating dilution was determined using standard ELISA checkerboard techniques. The plate was incubated overnight at 4°C, washed 4 times over 10 minutes with Tris buffered saline containing Tween 20 (TBST) and tapped dry. Standard solutions (JWH-018 for Immunogens I and II) were applied at 0, 0.625, 1.25, 2.5, 5, 10, 20 and 40ng/ml and 50µl of each was added to the appropriate wells. 75µl of conjugate (appropriate hapten-HRP) diluted in Tris buffer (pH 7.2) containing EDTA, D-mannitol, sucrose, thimerosal and BSA, was added to each of the wells. The appropriate dilution of conjugate was also determined using standard ELISA checkerboard techniques. The plate was incubated at 25°C for 1 hour. Excess unbound conjugate was removed by washing 6 times over a 10 minute period with TBST. 125µl of tetramethylbenzidine (TMB) substrate solution was added to each well of the plate that was then incubated for 20 minutes in the dark at room temperature. The reaction was terminated by addition of 125µl 0.2M H2SO4 to each well. The absorbance was then measured at 450nm using a microtiter plate reader. The data are inputted to a computer program called 'KC Junior'. It is a 4 parameter fit curve and allow the calculatation of concentrations between the standard runs. This program is used to calculate the IC50s by dividing the 0ng/ml OD value by 2 and obtaining the concentration value from the curve for this OD.
In a similar manner to that described above, the wells of a 96-well microtiter plate were coated with the IgG fraction of the antiserum raised to Immunogens I or II. Standard solutions (JWH-018 for Immunogen I and II) were applied at 0, 0.625, 1.25, 2.5, 5, 10, 20 and 40ng/ml and conjugate was employed as detection reagent.
(§3) The data set our in Tables 3 and 4 are generated using antibodies raised against the indicated Immunogens in a competitive binding assay with the indicated tracers, using the indicated standards: Table 2
(§4) A450 = absorbance at 450nm B = absorbance at 450nm at xng/ml standard concentration B0 = absorbance at 450nm at 0ng/ml standard concentration IC50 = standard concentration which produces 50% B/B0
(§5) In order to determine the specificity of the competitive ELISAs, standard solutions of a range of structurally similar synthetic cannabinoids and their metabolites were prepared in TBST. Using the calibration curves generated and employing a single level of cross reactants, these were used to determine the cross-reactivity of each immunoassay with these substances. […]

[2] = tested on: Antibody to Immunogen VIII
Procedure: as §1, §2
(§6) In a similar manner to that described above, the wells of a 96-well microtiter plate were coated with the IgG fraction of the antiserum raised to Immunogens IV, VII or VIII. Standard solutions (JWH-018 for Immunogens IV and VIII, JWH-015 for Immunogen VII) were prepared in TBST at 0, 1.25, 2.5, 5, 10, 20, 40 and 80ng/ml and conjugate was employed as detection reagent.
as §3, §4, §5

[3] = tested on: Antibody to Immunogen VII
Procedure: as §1, §2, §6, §3, §4, §5

[4] = tested on: Antibody to Immunogen IV
Procedure: as §1, §2, §6, §3, §4, §5

[5] = Cross-reactants at 100 ng/ml, Antibody to Immunogen VIII
[6] = Cross-reactants at 100 ng/ml, Antibody to Immunogen VII
[7] = Cross-reactants at 100 ng/ml, Antibody to Immunogen IV

Compound	%B/B0 [1] [%]	%B/B0 [2, 5] [%]	%B/B0 [3, 6] [%]	%B/B0 [4, 7] [%]	%B/B0 [2] [%]	%B/B0 [3] [%]	%B/B0 [4] [%]
CCCCCCC(C)(C)c1cc(O)c2c(c1)OC(C)(C)[C@H]1CC=C(CO)C[C@H]21 [HU-211 (Dexanabinol), Dexanabinol]	103.36	92.70	96.78	93.37			
CCCCCCC(C)(C)c1cc(OC)c([C@@H]2C=C(CO)[C@@H]3C[C@H]2C3(C)C)c(OC)c1 [HU-308]	101.35	89.77	95.95	94.03			
COc1ccc(C(=O)c2c(C)n(CCN3CCOCC3)c3cc(I)ccc23)cc1 [AM-630 (other name 6-Iodopravadoline), 6-Iodopravadoline]	91.12	89.88	99.88	90.17			
CCCCCCC(C)(C)C1=CC(=O)C([C@@H]2CCC[C@H](O)C2)=CC1=O [CP-47,497-para-quinone analogue]	100.26	88.11	93.29	97.33			
CCc1ccc(C(=O)c2cn(CCCCCC(=O)O)c3ccccc23)c2ccccc12 [JWH-210 N-(5-carboxypentyl) metabolite]	76.77	96.27	96.07	85.29			
O=C(c1ccc(I)cc1)c1cn(CCCCCF)c2ccccc12 [AM-694 4-iodo isomer]	73.79	13.42	98.71	27.66			
O=C(c1ccc2ccccc2c1)c1cn(CCN2CCOCC2)c2ccccc12 [JWH-200 2'-naphthyl isomer]	28.57	96.12	94.65	92.29			
CCCCCn1cc(C(=O)Cc2ccccc2OC)c2cc(O)ccc21 [JWH 250 5-hydroxyindole metabolite]	100.75	67.19	99.88	84.05			
CCCCCCCC(C)(C)c1ccc([C@H]2CCC[C@@H](O)C2)c(O)c1 [CP-49,497-C8-homologue]	101.11	104.88	98.55	94.66			
COc1ccc(C(=O)c2c(C)n(CCN3CCOCC3)c3ccccc23)cc1 [WIN-48,098 (other name Pravadoline), Pravadoline]	90.05	97.90	92.41	91.64			
CCCCCn1cc(C(=O)c2ccc(OC)cc2)c2ccccc21 [RCS-4]	80.46	5.93	93.51	19.21			
CCCCCn1cc(C(=O)Cc2cccc(C)c2)c2ccccc21 [JWH 251 3-methylphenyl isomer]	85.90	8.97	99.32	51.15			
CCCCCn1cc(C(=O)Cc2ccccc2OC)c2ccccc21 [JWH-250]	78.94	9.40	97.23	41.08			
(+)-CP 55,940	103.25	95.12	97.15	91.38			
CCCCCC(C)n1c(C)c(C(=O)c2cccc3ccccc23)c2ccccc21 (centres unmarked) [JWH-011]	62.13	97.49	57.43	99.19			
CCCCCn1cc(C(=O)c2ccc(CCC)c3ccccc23)c2ccccc21 [JWH-182]	107.08	30.65	98.40	12.83			
CCCCCn1cc(C(=O)c2ccc(CC)c3ccccc23)c2ccccc21 [JWH-210]	91.18	16.87	96.62	5.53			
(-)-11-nor-9-Carboxy-delta9-THC					103.36	98.72	93.08
NCCc1c[nH]c2ccc(O)cc12 [Serotonin HCl]		100.36	99.83	95.40			
